In patent US20260167656A1, “PHOSPHORAMIDATE COMPOUNDS AND USES THEREOF” (ALLORION THERAPEUTICS INC, priority 2022, published 2026):

Legend:
[1] = tested on: non-small cell lung cancer cell line H460; assay: H460 proliferation assay in the presence of 3 uM ASP9521 (AKR1C3 specific inhibitor); format: cell-based, human; conditions: H460 cells, CellTiter-Glo, 72 hours, in the presence of 3 uM ASP9521 added 4 hours prior to compounds; read-out: CTG H460: Avg IC50 (nM) [Assay Condition: ASP9521]
Summary of the method: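 H460 cells pre-incubated 24 h, then exposed to compounds for 72 h at 37 °C, 5% CO2. Viability read by CellTiter-Glo. ASP9521 (3 uM, AKR1C3 inhibitor) added 4 h before compounds.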

[2] = tested on: non-small cell lung cancer cell line H460; assay: In vitro human cancer cell line cytotoxicity (proliferation) assay in H460, CellTiter-Glo, 72 hours; format: cell-based; conditions: H460 cells, DMSO condition (no AKR1C3 inhibitor), read-out: CTG H460: Avg IC50 (nM) [Assay Condition: DMSO]
Summary of the method: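 H460 cells were seeded at 3×10^3 per well and grown 24 h at 37 °C, 5% CO2 before compound addition from 10 mM DMSO stocks. After 72 h further incubation, viability was measured by CellTiter-Glo, and IC50 values in nM were derived from the proliferation data.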

| Structure (SMILES) | IC50 [1] | IC50 ([2]; Homo sapiens, NCI-H460, 72 h) | IC50 [2] |
| --- | --- | --- | --- |
| Cn1c(=O)oc2ccc(Oc3c([N+](=O)[O-])ccc4c3CCC4OP(=O)(N3CC3)N3CC3)cc21 (stereo not shown) [Example 378] | 440 nM | < 10 nM |  |
| O=[N+]([O-])c1ccc2c(c1Oc1cccc(-n3cc(F)cn3)c1)CCC2OP(=O)(N1CC1)N1CC1 (stereo not shown) [Example 82] | 181 nM | < 10 nM |  |
| O=[N+]([O-])c1ccc2c(c1Oc1ccc(F)c(C3CC3)c1)CCC2OP(=O)(N1CC1)N1CC1 (stereo not shown) [Example 335] | 1910 nM |  | < 10 nM |
| Cn1cc2ccc(Oc3c([N+](=O)[O-])ccc4c3CC[C@@H]4OP(=O)(N3CC3)N3CC3)cc2n1 [Example 399] | 1110 nM |  | < 10 nM |
| Cn1ccc2cc(Oc3c([N+](=O)[O-])ccc4c3CC[C@@H]4OP(=O)(N3CC3)N3CC3)ccc2c1=O [Example 382] | 320 nM | < 10 nM |  |
| O=C1c2cc(Oc3cc4c(cc3[N+](=O)[O-])CCC4OP(=O)(N3CC3)N3CC3)ccc2CN1C1CC1 (single isomer, unassigned) [Example 171] | 1100 nM |  | < 10 nM |
| O=[N+]([O-])c1ccc2c(c1Oc1ccc(-c3ccccc3)nc1)CCC2OP(=O)(N1CC1)N1CC1 (stereo not shown) [Example 50] | 335 nM | < 10 nM |  |
| O=[N+]([O-])c1cc2c(cc1Oc1ccc(C3CC3)cc1)C(OP(=O)(N1CC1)N1CC1)CC2 (stereo not shown) [Example 149] | 372 nM |  | < 10 nM |
| O=[N+]([O-])c1ccc2c(c1Oc1ccc(C(F)(F)F)nc1)CCC2OP(=O)(N1CC1)N1CC1 (stereo not shown) [Example 26] | 298 nM |  | < 10 nM |
| Cn1c(-c2cccc(Oc3c([N+](=O)[O-])ccc4c3CCC4OP(=O)(N3CC3)N3CC3)c2)cccc1=O (stereo not shown) [Example 75] | 2720 nM |  | 10 to 50 nM |
| CC(OP(=O)(N1CC1)N1CC1)c1cc2cc(Oc3cccc(-c4ccccn4)c3)c([N+](=O)[O-])cc2o1 (stereo not shown) [Example 543] | 2230 nM |  | < 10 nM |
| CC(OP(=O)(N1C[C@H]1C)N1C[C@H]1C)c1ccc([N+](=O)[O-])c(Oc2ccc(-c3ccc(F)cn3)c(F)c2)c1 (stereo partly shown) [Example 222] | 3260 nM | 10 to 50 nM |  |
| O=[N+]([O-])c1ccc2c(c1Oc1ccc(F)c(OCC(F)(F)F)c1)CC[C@H]2OP(=O)(N1CC1)N1CC1 [Example 431] | 238 nM | < 10 nM |  |
| Cn1cc(-c2ccc(Oc3c([N+](=O)[O-])ccc4c3CCC4OP(=O)(N3CC3)N3CC3)cc2)cn1 (single isomer, unassigned) [Example 59] | 1360 nM |  | < 10 nM |
| O=[N+]([O-])c1cc2c(cc1Oc1ccc(-c3ccccn3)cc1)C(OP(=O)(N1CC1)N1CC1)CC2 (stereo not shown) [Example 517] | 2050 nM |  | < 10 nM |
| O=[N+]([O-])c1ccc2c(c1Oc1ccc(-n3cccn3)cc1)CCC2OP(=O)(N1CC1)N1CC1 (stereo not shown) [Example 424] | 779 nM |  | < 10 nM |
| CN(C)C(=O)c1cccc(Oc2c([N+](=O)[O-])ccc3c2CCC3OP(=O)(N2CC2)N2CC2)c1 (single isomer, unassigned) [Example 32] | 145 nM | < 10 nM |  |
| Cn1cccc(-c2ccc(Oc3c([N+](=O)[O-])ccc4c3CCC4OP(=O)(N3CC3)N3CC3)cc2)c1=O (stereo not shown) [Example 49] | 920 nM |  | < 10 nM |
| O=[N+]([O-])c1ccc2c(c1Oc1ccc(-c3ccc(F)cn3)cc1)CC[C@H]2OP(=O)(N1CC1)N1CC1 [Example 278] | 1560 nM |  | < 10 nM |
| CC(C)COc1cc(Oc2c([N+](=O)[O-])ccc3c2CC[C@@H]3OP(=O)(N2CC2)N2CC2)ccc1F [Example 498] | 899 nM | < 10 nM |  |
| CC(C)(C)c1cncc(Oc2c([N+](=O)[O-])ccc3c2CCC3OP(=O)(N2CC2)N2CC2)c1 (racemic) [Example 324] | 445 nM |  | < 10 nM |
| O=[N+]([O-])c1ccc2c(c1Oc1ccc(-c3ccncc3)cc1)CCC2OP(=O)(N1CC1)N1CC1 (stereo not shown) [Example 62] | 6100 nM |  | ≥ 100 nM |
| CN(C)C(=O)c1ccc(Oc2cc3c(cc2[N+](=O)[O-])CCC3OP(=O)(N2CC2)N2CC2)cc1 (single isomer, unassigned) [Example 141] | 366 nM |  | < 10 nM |
| O=C1c2ccc(Oc3c([N+](=O)[O-])ccc4c3CC[C@@H]4OP(=O)(N3CC3)N3CC3)cc2CN1C1CC1 [Example 379] | 447 nM | < 10 nM |  |
| O=[N+]([O-])c1ccc2c(c1Oc1cccc(-c3cnn(C4CC4)c3)c1)CCC2OP(=O)(N1CC1)N1CC1 (stereo not shown) [Example 95] | 1310 nM |  | 50 to 100 nM |
| O=C(c1cccc(Oc2c([N+](=O)[O-])ccc3c2CCC3OP(=O)(N2CC2)N2CC2)c1)N1CCC1 (stereo not shown) [Example 97] | 497 nM | < 10 nM |  |
